Experimental data as given in patent US9169241B2, “Quinolinyloxyphenylsulfonamides” (Max-Planck-Gesellschaft Zur Forderung der Wissenschaften …, priority 2009, dated 2015).
Read-outs that look alike come from different tables or passages of the source.

Legend:
Assay type in all cases: cell-based
SF763 = test: Apoptosis assay (Cellomics, nucleus condensation); conditions: Table III, read-out: Apoptosis induction in SF763
Summary of the method: (§1)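 5000 cells/well, Hoechst 33342 live stain; cpd 12.5, 6.25, 3.125, 1.56, 0.78, 0.39 μM or DMSO; imaged 24 h + 48 h; nuclear condensation = intensity variation per nucleus; cell number loss noted.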

C8161 [1] = test: Apoptosis assay (Cellomics, nucleus condensation); conditions: Homo sapiens, Table III, read-out: Apoptosis induction in C8161
Summary of the method: as §1

U118 = test: Apoptosis assay (Cellomics, nucleus condensation); conditions: Table III, read-out: Apoptosis induction in U118
Summary of the method: as §1

Hs578T = test: Apoptosis assay (Cellomics, nucleus condensation); conditions: Homo sapiens, Hs-578T, Table III, read-out: Apoptosis induction in Hs578T
Summary of the method: as §1

U138 = test: Apoptosis assay (Cellomics, nucleus condensation); conditions: Table III, read-out: Apoptosis induction in U138
Summary of the method: as §1

SF126 = test: Apoptosis assay (Cellomics, nucleus condensation); conditions: Homo sapiens, SF-126, Table III, read-out: Apoptosis induction in SF126
Summary of the method: as §1

tumor cell = test: Matrigel outgrowth assay/branching assay (Table Va)
Summary of the method: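 Invasive outgrowth into a 3 mg/ml Matrigel gel is judged from images taken after 48, 72 and 96 h of exposure to 3.125, 1.56 or 0.78 μM compound, with DMSO as control. Positive means total inhibition of branching.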

viable cells in culture = test: Cell viability assay at 10 μM (CellTiter-Glo, Table VII); conditions: compound 10 μM, 72 h;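 further: graded A 0-20%; B 21-40%; C 41-60%; D over 60% viable cells relative to DMSO control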
Summary of the method: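 Cells were seeded at 1000 cells/well in 96-well plates in 100 μl culture medium and incubated for 72 h with 10 μM compound or a DMSO control. ATP content, which reflects metabolically active and therefore viable cells, was then determined by CellTiter-Glo luminescence (Promega) per the manufacturer's instructions and expressed relative to the DMSO control.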

C8161 [2] = test: Cell vitality assay (ATP assay, CellTiter-Glo); conditions: Homo sapiens; C8161, 72 h; Table IIa; read-out: IC50 ATP-Assay after 72 h C8161
Summary of the method: (§2)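 Viability is estimated from cellular ATP after 72 h of compound treatment at 1000 cells per well. The dilution series runs 12.5, 6.25, 3.125, 1.56, 0.78, 0.39 and 0.195 μM. Half-maximal values are expressed against DMSO-treated wells.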

MDA-MB231 = test: Cell vitality assay (ATP assay, CellTiter-Glo); conditions: Homo sapiens, MDA-MB-231; MDA-MB231, 72 h; Table IIa; read-out: IC50 ATP-Assay after 72 h MDA-MB231
Summary of the method: as §2

[3] = Homo sapiens, C8161 cells, read-out: Total branching inhibition in Matrigel C8161
[4] = Homo sapiens, Hs-578T, Hs578T cells, read-out: Total branching inhibition in Matrigel Hs578T
[5] = U118 cells, read-out: Total branching inhibition in Matrigel U118
[6] = U138 cells, read-out: Total branching inhibition in Matrigel U138
[7] = Homo sapiens, HCT-116, HCT116 def, read-out: percentage (%) of viable cells HCT 116def
[8] = Homo sapiens, HCT-116, HCT116 wt, read-out: percentage (%) of viable cells HCT 116wt
[9] = Homo sapiens, HT-29, HT29, read-out: percentage (%) of viable cells HT29
[10] = Homo sapiens, NCI-H358, H358, read-out: percentage (%) of viable cells H358
[11] = Homo sapiens, NCI-H1650, H1650, read-out: percentage (%) of viable cells H1650
[12] = Homo sapiens, NCI-H1666, H1666, read-out: percentage (%) of viable cells H1666
[13] = Homo sapiens, NCI-H1975, H1975, read-out: percentage (%) of viable cells H1975
[14] = Homo sapiens, NCI-H1993, H1993, read-out: percentage (%) of viable cells H1993
[15] = Homo sapiens, A549, read-out: percentage (%) of viable cells A549
[16] = Homo sapiens, HCC827, read-out: percentage (%) of viable cells HCC827
[17] = Homo sapiens, SW480, read-out: percentage (%) of viable cells SW480
[18] = RKO, read-out: percentage (%) of viable cells RKO

| SMILES | IC50 (SF763) [µM] | IC50 (C8161 [1]) [µM] | IC50 (U118) [µM] | IC50 (Hs578T) [µM] | IC50 (U138) [µM] | IC50 (SF126) [µM] | IC50 (tumor cell; [3]) [µM] | IC50 (tumor cell; [4]) [µM] | IC50 (tumor cell; [5]) [µM] | IC50 (tumor cell; [6]) [µM] | viability at 10 µM (viable cells in culture; [7]) [%] | viability at 10 µM (viable cells in culture; [8]) [%] | viability at 10 µM (viable cells in culture; [9]) [%] | viability at 10 µM (viable cells in culture; [10]) [%] | viability at 10 µM (viable cells in culture; [11]) [%] | viability at 10 µM (viable cells in culture; [12]) [%] | viability at 10 µM (viable cells in culture; [13]) [%] | viability at 10 µM (viable cells in culture; [14]) [%] | viability at 10 µM (viable cells in culture; [15]) [%] | viability at 10 µM (viable cells in culture; [16]) [%] | also measured |
| --- | --- | --- | --- | --- | --- | --- | --- | --- | --- | --- | --- | --- | --- | --- | --- | --- | --- | --- | --- | --- | --- |
| COc1cc2c(Oc3ccc(NS(=O)(=O)c4c(Cl)cccc4Cl)cc3F)ccnc2cc1OCCCN1CCN(C)CC1 [Example 32, 2,6-Dichloro-N-(3-fluoro-4-{6-methoxy-7-[3-(4-methyl-piperazin-1-yl)-propoxy]-quinolin-4-yloxy}-phenyl)-benzenesulfonamide] | ≤ 12.5 | ≤ 12.5 | ≤ 12.5 | ≤ 12.5 | ≤ 12.5 | ≤ 12.5 | ≤ 5 | ≤ 5 | ≤ 5 | 5 to 50 | 21 to 40 | 0 to 20 | 0 to 20 | 0 to 20 | 21 to 40 | 41 to 60 | 21 to 40 | 0 to 20 | 41 to 60 | 41 to 60 | viability at 10 µM (viable cells in culture; [17]): 21 to 40%; viability at 10 µM (viable cells in culture; [18]): 21 to 40%; IC50 (C8161 [2]): ≤ 12.5 µM; IC50 (MDA-MB231): ≤ 12.5 µM |
| COc1cc2c(Oc3ccc(NS(=O)(=O)c4ccccc4OC)cc3F)ccnc2cc1OCCCN1CCN(C)CC1 [Example 33, N-(3-Fluoro-4-{6-methoxy-7-[3-(4-methyl-piperazin-1-yl)-propoxy]-quinolin-4-yloxy}-phenyl)-2-methoxy-benzenesulfonamide] | ≤ 12.5 | ≤ 12.5 | 12.5 to 50 | 12.5 to 50 | ≤ 12.5 | ≤ 12.5 | ≤ 5 | ≤ 5 | ≤ 5 | 5 to 50 | 21 to 40 | 0 to 20 | 0 to 20 | 21 to 40 | > 60 | 21 to 40 | 21 to 40 | 0 to 20 | 41 to 60 | 21 to 40 | viability at 10 µM (viable cells in culture; [17]): 0 to 20%; viability at 10 µM (viable cells in culture; [18]): 0 to 20%; IC50 (C8161 [2]): ≤ 12.5 µM; IC50 (MDA-MB231): ≤ 12.5 µM |
| COc1cc2c(Oc3ccc(NS(=O)(=O)c4cccc(C#N)c4)cc3F)ccnc2cc1OCCCN1CCCC(C)C1 (stereo not drawn) [Example 41, 3-Cyano-N-(3-fluoro-4-{6-methoxy-7-[3-(3-methyl-piperidin-1-yl)-propoxy]-quinolin-4-yloxy}-phenyl)-benzenesulfonamide] | ≤ 12.5 | ≤ 12.5 | ≤ 12.5 | ≤ 12.5 | ≤ 12.5 | ≤ 12.5 | ≤ 5 | ≤ 5 | ≤ 5 | 5 to 50 | 0 to 20 | 41 to 60 | 21 to 40 | 0 to 20 | 41 to 60 | 21 to 40 | 0 to 20 | 21 to 40 | 21 to 40 | 41 to 60 | viability at 10 µM (viable cells in culture; [17]): 0 to 20%; viability at 10 µM (viable cells in culture; [18]): 0 to 20%; IC50 (C8161 [2]): ≤ 12.5 µM; IC50 (MDA-MB231): ≤ 12.5 µM |
| COc1cc2c(Oc3ccc(NS(=O)(=O)c4cc(C)ccc4F)cc3F)ccnc2cc1OCCCN1CCCC(C)C1 (stereo not drawn) [Example 55] | ≤ 12.5 | ≤ 12.5 | 12.5 to 50 | ≤ 12.5 | ≤ 12.5 | ≤ 12.5 | ≤ 5 | ≤ 5 | ≤ 5 | 5 to 50 | 21 to 40 | 0 to 20 | 21 to 40 | 0 to 20 | 0 to 20 | 0 to 20 | > 60 | 0 to 20 | 21 to 40 | 41 to 60 | viability at 10 µM (viable cells in culture; [17]): 21 to 40%; viability at 10 µM (viable cells in culture; [18]): 41 to 60%; IC50 (C8161 [2]): ≤ 12.5 µM; IC50 (MDA-MB231): ≤ 12.5 µM |
